Results published in patent US20200360365A1, “SUBSTITUTED HALO-QUINOLINE DERIVATES FOR USE IN THE TREATMENT OF LYMPHOMAS AND LEUKEMIA” (Instutut National de la Sante et de la Researche Medicale, priority 2018, published 2020).
Where two headings read alike, the source gives them in different places.

Tests used:
melanoma cell line A375 = assay: In vitro dose response study, A375 proliferation; assay type: cell-based, human; settings: A375, 96h; for IC50: Homo sapiens, A-375, graded concentration, cell concentration
Procedure: The melanoma cell line A375 was treated during 96h with graded concentration of compounds 5, 38, 42 and 43. At the end of the culture period, the cell concentration was determined.

[1] = test system: plck-GAPDH tumor (AITL-like lymphoma) engrafted in NSG mice; assay: Treatment of plck-GAPDH AITL lymphoma engrafted NSG mice; assay type: in vivo, mouse
Procedure: Tumor Transplantation into NOD/SCIDγc−/− (NSG) Mice
Single cell suspensions from spleen or lymph nodes of old (>18 months) plck-GAPDH mice with splenomegaly were injected intravenously (i.v.) into 6-8 week old NSG mice (1-2E7 splenocytes per mouse). Recipient mice were sacrificed for evaluation when the mice became weak and/or splenomegaly could be detected (30 to 60 days after injection). The different hematopoietic organs (liver, spleen, blood) were isolated and single cell suspension prepared for FACS analysis (see below).
Treatment with NIK Inhibitor
Plck-GAPDH tumors were injected into 10 NSG mice (see above) and 5 were treated with a newly developed chemical NIK inhibitor (compound 5 according to the invention) or with Vehicle. IP injections were performed every other day with compound 5 (250 μg in 100 μl DMSO/Tween-20/Labrafil) or vehicle (100 μl DMSO/Tween-20/Labrafil). The second NIK inhibitor used (compound 38 according to the invention) was more soluble and IP injections were performed every other day with compound 38 (250 μg in 100 μl NaCl 0,9%/mouse) or vehicle (100 μl NaCl 0,9%/mouse).
Two different plck-GAPDH tumors expressing high levels of PD-1 on the CD4^+ T cells were injected into 10 NSG mice and the mice were treated with anti-PD1 antibody (clone PMP1-14, BioXcell; 125 μg in PBS/mouse) or an isotope control antibody daily for the first 2 days post-tumor injection, then every other day.
Combined anti-PD1 and NIK Inhibitor Treatment
The mice were injected with antibody (anti-PD1 or isotype control) in the morning and compound 38 according to the invention (injected in the evening) daily for the first 2 days plck-GAPDH post-tumor injection, then every other day. Same concentration as for single treatments was used.
Recipient mice were sacrificed at endpoint (>10% weight loss or palpable splenomegaly). Single cell suspensions were prepared from the spleen, BM and liver for immunophenotypic FACS analysis.

NIK = NIK (Homo sapiens, UniProt Q99558); settings: patent PCT/EP2017/067306; cited from earlier work
Solubility = assay type: physicochemical
[2] = test system: human Diffuse large B-cell lymphoma (DLBCL) B cell lines (U2932, KARPAS 422, SUDHL6, OCYL3); assay: B cell lymphoma proliferation assay; assay type: cell-based; settings: 10 μM, 96 h
Procedure: B Cell Lymphoma Proliferation Assay
The tested cancer cells are the following: the human Diffuse large B-cell lymphoma (DLBCL) cell lines: Karpas-422, SUDHL-6, U2932 and Oxyl3.
Cells were counted using a flow cytometer (MACQUANT, Miltenyi). 2E5 cells were seeded in 2 ml RPMI-GlutamaX supplemented with 10% FCS at start of the proliferation assay in a 6-well plate supplemented with the NIK Inhibitor (compound 38) at 10 μM for 96 h. The cell numbers at 96h were then determined by counting using a flow cytometer. We distinguished dead and living cells using DAPI staining.
Proliferation was calculated as followed:
Proliferation (%)=(Treated cell number/untreated cells)*100.
The average and standard deviation were determined from 3 independent experiments.

[3] = test system: prostate cancer cells (PC3); assay: Cancer cell proliferation assay (trypan blue exclusion), PC3; assay type: cell-based, human; settings: 10 μM; proliferation normalized to DMSO-treated control
Procedure: (§1) Cancer cell proliferation assay (A375, A549, PC3, HT-29, MiaPaca-2 and MCF-7)
(§2) The tested cancer cells are the following: human melanoma cells (A375), lung carcinoma cells (A549), prostate cancer cells (PC3), colon adenocarcinoma (HT29), pancreas carcinoma (MiaPaca 2) and breast carcinoma (MCF-7).
(§3) Cells were counted using a Malassez chamber. The average and standard deviation were calculated from triplicate experiments. Antiproliferative effects were evaluated by trypan blue exclusion assay. Briefly, cells were seeded into 12-well plate and grown in media supplemented with indicated compound at 1 or 10μM for 48h or 96h. Cells were washed with PBS and detached by trypsinization, collected and colored by trypan blue.
(§4) Dead and living cells were counted and proliferation was calculated as follow: Proliferation (%)=[(treated cell number/untreated cells number)*100].
(§5) As a comparison, cell viability was also determined and calculated as follow: Viability (%)=100−[(dead cell number/total cells)*100].

[4] = test system: senescence-associated β-galactosidase (SA-β-Gal); assay: Quantitative senescence-associated beta-galactosidase assay; assay type: cell-based; settings: SA-β-Gal 4-MUG cleavage; relative to DMSO-treated control
Source text: Quantitative Senescence-Associated Beta-Galactosidase Assay
The production of the fluorophore was monitored at an […] wavelength of 365/460 nm, as reported (Gary and Kindell, 2005)

[5] = test system: colon adenocarcinoma (HT29); assay: Cancer cell proliferation assay (trypan blue exclusion), HT29; assay type: cell-based, human; settings: 10 μM; proliferation normalized to DMSO-treated control
Procedure: as §1, §2, §3, §4, §5

breast carcinoma (MCF-7) = assay: Cancer cell proliferation assay (trypan blue exclusion), MCF-7; assay type: cell-based, human; settings: 10 μM; proliferation normalized to DMSO-treated control
Procedure: as §1, §2, §3, §4, §5

[6] = test system: human melanoma cells (A375); assay: Cancer cell proliferation assay (trypan blue exclusion), A375; assay type: cell-based; settings: 10 μM; proliferation normalized to DMSO-treated control
Procedure: as §1, §2, §3, §4, §5

[7] = test system: lung carcinoma cells (A549); assay: Cancer cell proliferation assay (trypan blue exclusion), A549; assay type: cell-based, human; settings: 10 μM; proliferation normalized to DMSO-treated control
Procedure: as §1, §2, §3, §4, §5

[8] = test system: IFN-γ in supernatant of A375 cancer cells; assay: ELISA measurement of IFN-γ in supernatant; assay type: cell-based, human; settings: 10 μM, 96 h
Procedure: Supernatant from cells treated for 96 h was tested for human or mouse IFN-γ content via ELISA (peprotech, cat 900-k27 and 900-k98) kit following the manufacturer's instructions.

[9] = test system: EZH2 mRNA in A375 cancer cells; assay: Quantitative RT-PCR analysis of EZH2 gene expression; assay type: cell-based, human; settings: 10 μM, 96 h
Procedure: (§6) Quantitative RT-PCR Analysis of EZH2 and p21 Gene Expression
(§7) Total RNA was isolated from cells using the RNAeasy minikit (Qiagen) according to the manufacturer's procedure. Reverse transcription was performed using the AMV reverse transcription system (Promega), and quantitative PCR was performed with Power Sybr green (Applied Biosystems, Life Technologies, Grand Island, N.Y.) following the manufacturer's instructions. The PCR was carried out on a Step One plus Real-Time PCR system (Applied Biosystems). All analyses were done in triplicate, and a melting curve analysis was performed to control for product quality and specificity. Expression levels were calculated using the comparative method of relative quantification, with SB34 as a normalizer. The data were analyzed for statistical significance using Student's t-test. The results are presented as the mean±SEM relative to the control.
(§8) PCR primers for EZH2 (accession number NM004456.4) and p21(CDKN1A) (accession number NM078467.2) were obtained from primer bank or primer depot (http://pga.mgh.harvard.edu/primerbank/, https://primerdepot.nci.nih.gov), and their specificity was verified using primer blast (http://www.ncbi.nlm.nih.gov/tools/primer-blast/).

human melanocytes (MHN) = assay: Melanocyte viability assay (MHN); assay type: cell-based; settings: 10 μM, 96 h; viability normalized to DMSO-treated control
Procedure: Melanocyte Viability Assay (MHN)
Cell viability effects were evaluated by trypan blue exclusion assay. Briefly, cells were seeded into 12-well plate and grown in media supplemented with indicated compound at 10 μM for 96 h. Cells were washed with PBS and detached by trypsinization, collected and colored by trypan blue. Dead and living cells were counted and cell viability was calculated as follow: Viability (%)=100−[(dead cell number/total cells)*100].

[10] = test system: p21 (CDKN1A) mRNA in A375 cancer cells; assay: Quantitative RT-PCR analysis of p21 gene expression; assay type: cell-based, human; settings: 10 μM, 96 h
Procedure: as §6, §7, §8

[11] = test system: pancreas carcinoma (MiaPaca 2); assay: Cancer cell proliferation assay (trypan blue exclusion), MiaPaca-2; assay type: cell-based, human; settings: 10 μM; proliferation normalized to DMSO-treated control
Procedure: as §1, §2, §3, §4, §5

[12] = Microsomal stability (mouse liver microsomes); assay type: in vitro ADME; settings: mouse liver microsomes 0.5 mg/mL, NADPH 1 mM, 37° C.
Procedure: Microsomal Stability (Mouse Liver Microsomes)
Microsomal stability was evaluated with mouse liver microsomes (0.5 mg/mL) and NADPH cofactor (1 mM) at 37° C. The percentage of remaining compound is determined at 5 min by LC-MS by measuring the area under the peak of compound on the chromatogram.

[13] = plck-GAPDH tumor engrafted NSG mice

Chain of NIK (Q99558 whole entry): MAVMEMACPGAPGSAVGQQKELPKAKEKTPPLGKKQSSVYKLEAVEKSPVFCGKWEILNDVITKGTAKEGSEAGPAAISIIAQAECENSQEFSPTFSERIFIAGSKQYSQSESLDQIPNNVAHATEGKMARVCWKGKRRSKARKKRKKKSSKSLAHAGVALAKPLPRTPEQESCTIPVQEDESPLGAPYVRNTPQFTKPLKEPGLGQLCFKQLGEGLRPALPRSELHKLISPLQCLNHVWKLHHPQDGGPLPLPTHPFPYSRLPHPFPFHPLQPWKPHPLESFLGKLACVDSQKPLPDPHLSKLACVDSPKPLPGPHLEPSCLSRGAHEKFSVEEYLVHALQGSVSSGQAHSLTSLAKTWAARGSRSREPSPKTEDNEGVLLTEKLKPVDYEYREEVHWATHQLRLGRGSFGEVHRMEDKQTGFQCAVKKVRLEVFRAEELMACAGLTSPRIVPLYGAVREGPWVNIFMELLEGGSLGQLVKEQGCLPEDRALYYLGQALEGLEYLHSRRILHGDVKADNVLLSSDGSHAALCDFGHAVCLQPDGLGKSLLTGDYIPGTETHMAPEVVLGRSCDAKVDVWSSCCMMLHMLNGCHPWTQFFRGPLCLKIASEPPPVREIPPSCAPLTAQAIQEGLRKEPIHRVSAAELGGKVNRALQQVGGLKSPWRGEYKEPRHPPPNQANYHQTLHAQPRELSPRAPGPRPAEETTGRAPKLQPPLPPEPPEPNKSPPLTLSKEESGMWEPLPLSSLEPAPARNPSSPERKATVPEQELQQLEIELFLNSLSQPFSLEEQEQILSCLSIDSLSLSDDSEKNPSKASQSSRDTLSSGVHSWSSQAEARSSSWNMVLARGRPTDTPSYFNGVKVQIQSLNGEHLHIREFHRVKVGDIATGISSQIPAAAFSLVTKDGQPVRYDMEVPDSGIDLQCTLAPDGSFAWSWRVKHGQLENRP

With `COc1ccc(Nc2ccnc3cc(Cl)ccc23)cc1` [Compound 5, N-(4-methoxyphenyl)-7-chloroquinolin-4-amine] the “concentration at which inhibition of A375 proliferation starts” value (“concentration at which inhibition” for short) (melanoma cell line A375) was “around 5 mM”, the IC50 (melanoma cell line A375) was 1330 nM and the “GC B cells in the spleen at sacrifice” value [1, 13] was “completely devoid of GC B cells”. The “survival of tumor engrafted NSG mice as compared to the control group” value ([1]; plck-GAPDH tumor engrafted NSG mice, IP treatment day 1 and 2, then every other day) was “significant increased survival” and the anti-NIK activity (NIK) was “confirmed its activity in vitro”.

For `COc1ccc(Nc2ccnc3cc(Cl)ccc23)cc1OC` [Compound 38, N-(3,4-dimethoxyphenyl)-7-chloroquinolin-4-amine], the “concentration at which inhibition” value (melanoma cell line A375) was “around 5 mM”, the IC50 (melanoma cell line A375) was 560 nM and the solubility (Solubility) was “more soluble”. For the same compound, the solubility (Solubility; listed as COMPONENT 38) was “high solubility”, the “survival of the plck-GAPDH tumor engrafted mice” value ([1]; NSG mice, compound 38 250 μg IP, anti-PD1 125 μg, every other day) was “up to 60%” and the “B cells in the spleen at sacrifice” value [1, 13] was “highly significant decrease”. The “CD4+ T cells in the spleen” value [1, 13] was “strong reduction”, the “Tfh PD1high CD4+ population in the spleen” value [1, 13] was “residual subpopulation” and the “spleen size at sacrifice compared to controls” value [1, 13] was “significant decrease in spleen size”. For the same compound, the “CD8 cytotoxicity (IFNγ, granzyme B, perforin by cytotoxic CD8+ cells)” value ([1]; splenocytes at sacrifice, PMA/ionomycin 5 h) was “increasing CD8 IFNγ release”, the “proliferation of B cell lymphoma cancer cell lines compared with controls (DMSO)” value [2] was “strong inhibitory effect” and the “cell viability of B cell lymphoma cell lines” value ([2]; data not shown) was “without affecting the cell viability”. The anti-NIK activity (NIK) was “potent”.

For `COCCOc1ccc(Nc2ccnc3cc(Cl)ccc23)cc1` [Compound 42, 7-chloro-N-(4-(2-methoxyethoxy)phenyl)quinolin-4-amine], the “Cancer Cell Proliferation PC3” value [3] was 14.1%, the “concentration at which inhibition” value (melanoma cell line A375) was “around 5 mM” and the “% Senescence, conversion rate” value [4] was 645.9%. For the same compound, the “Cancer Cell Proliferation HT29” value [5] was 3.5%, the “Cancer Cell Proliferation MCF-7” value (breast carcinoma (MCF-7)) was 11.9% and the “Cancer Cell Proliferation A375” value [6] was 6.9%. The “Cancer Cell Proliferation A549” value [7] was 19.5%, the “ELISA IFN-γ (A375), IFN-γ concentration” value [8] was 1.73 (ng/mL)/millions cells and the “qPCR EZH2 A375 mRNA” value [9] was 0.23 fold relative to DMSO-treated control. For the same compound, the “Heathly Cell Viability MHN” value (human melanocytes (MHN)) was 99.0%, the “qPCR p21 A375 mRNA” value [10] was 6.79 fold relative to DMSO-treated control and the “Cancer Cell Proliferation MiaPaca-2” value [11] was 7.8%.

With `COc1ccc(Nc2ccnc3cc(Cl)ccc23)cc1O` [Compound 43, 7-chloro-N-(3-(hydroxy)-4-(methoxy)phenyl)quinolin-4-amine] the “Cancer Cell Proliferation PC3” value [3] was 55.0%, the “concentration at which inhibition” value (melanoma cell line A375) was “around 5 mM” and the “% Senescence, conversion rate” value [4] was 1875.1%. For the same compound, the “Cancer Cell Proliferation HT29” value [5] was 15.6%, the “Cancer Cell Proliferation MCF-7” value (breast carcinoma (MCF-7)) was 29.5% and the “Cancer Cell Proliferation A375” value [6] was 30.5%. The “Cancer Cell Proliferation A549” value [7] was 51.1%, the “Microsomal stability, mouse liver (5 min), percentage of the remaining compound” value [12] was 41% ± 3 and the “Microsomal stability, mouse liver (5 min), percentage of the remaining compound” value ([12]; listed as compound 43) was 41%. The “ELISA IFN-γ (A375), IFN-γ concentration” value [8] was 0.41 (ng/mL)/millions cells, the “qPCR EZH2 A375 mRNA” value [9] was 0.62 fold relative to DMSO-treated control and the “qPCR p21 A375 mRNA” value [10] was 3.08 fold relative to DMSO-treated control. The “Cancer Cell Proliferation MiaPaca-2” value [11] was 32.4%.
